Reference: patent publication US20110044936A1, “Composition for Attracting Bed Bugs” (priority 2009, published 2011)

Tests used:
Format in all cases: in vivo
[1] = test system: bed bugs (Cimex lectularius); experiment: Bed bug aggregation (attraction) assay, Petri dish arena with treated and control filter paper tents (Example 1)
Description: Attraction Assays: Assay arenas were made from 150×15 mm plastic Petri dishes (VWR#25384-326) containing a 125 mm piece off qualitative filter paper (VWR#28320-100) glued to the bottom using 3M Super 77® multipurpose spray adhesive. A 80 mm hole was cut into the lid and a 500 um mesh Nytex® screen (Bioquip, #7293B) was glued to cover the opening using quick epoxy. Fresh bottom dishes were used in each assay. For these experiments 2.4 cm filter paper folded to create a tent were treated with either a control treatment (10 microliters of silicone oil for aldehyde controls and 5 microliters of deionized water for acid controls) or 10 microliters of the experimental test treatment diluted in silicone oil (aldehydes) or 5 microliters of the experimental chemical diluted in deionized water (acids). Ten bed bugs per test were released into the assay arena for the aldehyde test treatments and controls, five bed bugs per test were released into the assay arena for the acid test treatments. Day cycling bed bugs (Cimex lectularius), 12 hour light: 12 hour dark (7 AM On: 7 PM Off) light cycle, were incubated and evaluated under normal room lighting conditions at room temperature. Readings were taken at 1 hour intervals from the release of bed bugs for 4 hours for aldehydes and one hour for acids, due to the quick volatility of the acids. The number of bed bugs under the control filter paper disk and the number of bed bugs under the test treatment filter paper disk were recorded. The test treatment was considered to be an attractant if the number of bed bugs under the experimental filter disk was greater than the number under the control filter disk. Table 1 below summarizes the experimental data, the experimental test treatments considered as attractants are in bold.

[2] = test system: bed bugs (Cimex lectularius); experiment: Test arena gas assay, compounds dissolved in nonane (Example 5); settings: for % Bed bugs in Experimental Zone: after two hour exposure, released from nonane solution at 150.0-184.8 nanograms/hour @ 100 mL/min air flow, test gas 21-22 °C, control gas compressed air; for Attraction of bed bugs to gaseous mixture: test arena, two hour exposure, versus control gas
Text: A test arena was constructed from a 60×40×22 cm (L:W:H) polystyrene container. A 60×40 cm piece of filter paper was glued on the bottom to provide a walking surface for the bed bugs. At one end of the test arena, a triangular piece of plastic (16 cm high×25 cm long) was glued to the middle of the side and bottom of the container to create test zones of equal area on either side of the partition. On each side of this partition a piece of Tygon® tubing was inserted through a hole 7 cm above the bottom of each test zone to deliver a control gas to one side of the partition (control zone) and the experimental gas to the other side of the partition (experimental zone). The tubing was positioned to deliver the gases downward into the test zones with each outlet 6 cm above the filter paper glued to the bottom of the container. At the other end of the test arena, a 4 W night light was placed 35 cm above the bottom of the arena and regulated to a 12 hour light:12 hour dark (7 AM On: 7 PM Off) light cycle. Also placed adjacent to the night light was a small fan (Boston, cat#EHSDF) to create a gentle removal of gases from the distal part of the arena. Air released by the experimental and control gases was contained within their partitions and were gently drawn away from the respective air inputs, mixed within the arena and removed by the fan. This created a laminar flow where the bed bugs had opportunity to select either the experimental or control gas. Fifty bed bugs (Cimex lectularius) were entrapped within an inverted 90 mm Petri dish at a position furthest from the control and experimental zones until bed bugs were quiescent. Removal of the Petri dish started the experiment and readings were taken every hour for two hours. Data collected were number of bed bugs in the experimental, control and free arena zones. In addition, gas temperature, relative humidity, air flow rate, and percent CO2 data were collected. The experimental gas was considered to be an attractant if more bed bugs were in the experimental zone than in the control zone.
Determination of Bed Bug Aggregation Effect Using Hexenal, Butyric Acid, trans-2-Hexen-1-al Diethylacetal, Trimethylsilyl Butyrate or Methyl Butyrate Dissolved in an Alkane Solvent Using the test arena and methods described in Example 4, test treatments containing about 300 ppm of a pro-aldehyde compound, trans-2-hexen-1-al diethylacetal, dissolved in nonane, about 300 ppm of Hexenal dissolved in nonane, about 200 ppm of butyric acid dissolved in nonane and about 200 ppm of a pro-organic acid compound, trimethylsilyl butyrate or methyl butyrate, dissolved in nonane were prepared. Separate 100 micro liter pipettes (Drummond Wiretrol 100 μL) were filled with the test solutions. One end of each micro liter pipette was sealed with parafilm leaving one end of each open. […] An air tight lid was placed onto the plastic container and the container was installed in-line after humidity and temperature conditioning of the gas and before the gas entered the arena. The micro liter pipettes were weighed before and after use to determine the amount of the test compounds released. The control gas used for these experiments consisted of house compressed air.

[3] = test system: bed bugs (Cimex lectularius); experiment: Bed bug aggregation assay, mixtures of Hexenal and Octenal (Example 2); settings: about 30 ppm in silicone oil; for Number of bed bugs under experimental (Exp) disk: 5 microliters, ten bed bugs, average of two tests
Description: Attraction Assays: […] For this experiment, mixtures of Hexenal and Octenal were diluted in silicone oil at the following ratios: 100:0; 75:25; 50:50; 25:75; and 0:100. […] Readings were taken hourly for four hours from the release of bed bugs in the assay arena. The number of bed bugs under the control disk and the number of bed bugs under the experimental disk were recorded. The test treatment was considered to be an attractant if the number of bed bugs under the experimental filter disk was greater than the number under the control disk. Table 2 below summarizes the experimental data, the experimental test treatments considered as attractants are in bold.

[4] = 1 ppm in silicone oil, 10 microliters, 1 Hour, ten bed bugs, average of two tests
[5] = 1 ppm in silicone oil, 10 microliters, 2 Hour, ten bed bugs, average of two tests
[6] = 1 ppm in silicone oil, 10 microliters, 3 Hour, ten bed bugs, average of two tests
[7] = 1 ppm in silicone oil, 10 microliters, 4 Hour, ten bed bugs, average of two tests
[8] = 10 ppm in silicone oil, 10 microliters, 1 Hour, ten bed bugs, average of two tests
[9] = 10 ppm in silicone oil, 10 microliters, 2 Hour, ten bed bugs, average of two tests
[10] = 10 ppm in silicone oil, 10 microliters, 3 Hour, ten bed bugs, average of two tests
[11] = 10 ppm in silicone oil, 10 microliters, 4 Hour, ten bed bugs, average of two tests
[12] = 100 ppm in silicone oil, 10 microliters, 1 Hour, ten bed bugs, average of two tests
[13] = 100 ppm in silicone oil, 10 microliters, 2 Hour, ten bed bugs, average of two tests
[14] = 100 ppm in silicone oil, 10 microliters, 3 Hour, ten bed bugs, average of two tests
[15] = 100 ppm in silicone oil, 10 microliters, 4 Hour, ten bed bugs, average of two tests
[16] = 1000 ppm in silicone oil, 10 microliters, 1 Hour, ten bed bugs, average of two tests
[17] = 1000 ppm in silicone oil, 10 microliters, 2 Hour, ten bed bugs, average of two tests
[18] = 1000 ppm in silicone oil, 10 microliters, 3 Hour, ten bed bugs, average of two tests
[19] = 1000 ppm in silicone oil, 10 microliters, 4 Hour, ten bed bugs, average of two tests
[20] = 10000 ppm in silicone oil, 10 microliters, 1 Hour, ten bed bugs, one test
[21] = 10000 ppm in silicone oil, 10 microliters, 2 Hour, ten bed bugs, one test
[22] = 10000 ppm in silicone oil, 10 microliters, 3 Hour, ten bed bugs, one test
[23] = 10000 ppm in silicone oil, 10 microliters, 4 Hour, ten bed bugs, one test
[24] = at a high concentration of about 10,000 ppm
[25] = organic acid 10 ppm in deionized water, 5 microliters, one hour, five bed bugs, average of two tests
[26] = organic acid 50 ppm in deionized water, 5 microliters, one hour, five bed bugs, average of two tests
[27] = organic acid 100 ppm in deionized water, 5 microliters, one hour, five bed bugs, average of two tests
[28] = organic acid 1000 ppm in deionized water, 5 microliters, one hour, five bed bugs, average of two tests

CCC/C=C/C=O [Hexenal, trans-2-hexen-1-al]
Number of bed bugs under experimental (Exp) filter paper disk [1, 4]: 4
Number of bed bugs under experimental (Exp) filter paper disk [1, 5]: 6
Number of bed bugs under experimental (Exp) filter paper disk [1, 6]: 6.5
Number of bed bugs under experimental (Exp) filter paper disk [1, 7]: 6
Number of bed bugs under experimental (Exp) filter paper disk [1, 8]: 3
Number of bed bugs under experimental (Exp) filter paper disk [1, 9]: 3.5
Number of bed bugs under experimental (Exp) filter paper disk [1, 10]: 4
Number of bed bugs under experimental (Exp) filter paper disk [1, 11]: 5.5
Number of bed bugs under experimental (Exp) filter paper disk [1, 12]: 6.5
Number of bed bugs under experimental (Exp) filter paper disk [1, 13]: 8
Number of bed bugs under experimental (Exp) filter paper disk [1, 14]: 9
Number of bed bugs under experimental (Exp) filter paper disk [1, 15]: 8.5
Number of bed bugs under experimental (Exp) filter paper disk [1, 16]: 6
Number of bed bugs under experimental (Exp) filter paper disk [1, 17]: 7
Number of bed bugs under experimental (Exp) filter paper disk [1, 18]: 9
Number of bed bugs under experimental (Exp) filter paper disk [1, 19]: 9
Number of bed bugs under experimental (Exp) filter paper disk [1, 20]: 0
Number of bed bugs under experimental (Exp) filter paper disk [1, 21]: 1
Number of bed bugs under experimental (Exp) filter paper disk [1, 22]: 1
Number of bed bugs under experimental (Exp) filter paper disk [1, 23]: 1
Attractiveness to bed bugs [1, 24]: much less attractive
% Bed bugs in Experimental Zone [2]: 38.0%
Attraction of bed bugs to gaseous mixture [2]: attracted
Number of bed bugs under experimental (Exp) disk ([3]; 1 Hour): 3
Number of bed bugs under experimental (Exp) disk ([3]; 2 Hour): 3
Number of bed bugs under experimental (Exp) disk ([3]; 3 Hour): 4.5
Number of bed bugs under experimental (Exp) disk ([3]; 4 Hours): 5

CC(=O)O [Acetic acid, reference compound]
Number of bed bugs under experimental (Exp) filter paper disk [1, 25]: 0
Number of bed bugs under experimental (Exp) filter paper disk [1, 26]: 1
Number of bed bugs under experimental (Exp) filter paper disk [1, 27]: 1
Number of bed bugs under experimental (Exp) filter paper disk [1, 28]: 3
Number of bed bugs under experimental (Exp) filter paper disk ([1]; organic acid 10000 ppm in deionized water, 5 microliters, one hour, five bed bugs, average of two tests): 3

CCCCC=O [Valeraldehyde, reference compound]
Number of bed bugs under experimental (Exp) filter paper disk ([1]; 10 milligrams delivered in 10 microliters methanol solution, one experimental disk versus 6 methanol control disks, 1 Hour, average of two tests): 0.1
Attractiveness to bed bugs ([1]; saturated aldehyde, 10 milligrams on disk, one hour): not attractive

CCCCC/C=C/C=O [Octenal, trans-2-octen-1-al]
Number of bed bugs under experimental (Exp) filter paper disk [1, 4]: 1
Number of bed bugs under experimental (Exp) filter paper disk [1, 5]: 2
Number of bed bugs under experimental (Exp) filter paper disk [1, 6]: 3.5
Number of bed bugs under experimental (Exp) filter paper disk [1, 7]: 5
Number of bed bugs under experimental (Exp) filter paper disk [1, 8]: 2
Number of bed bugs under experimental (Exp) filter paper disk [1, 9]: 4
Number of bed bugs under experimental (Exp) filter paper disk [1, 10]: 4.5
Number of bed bugs under experimental (Exp) filter paper disk [1, 11]: 4
Number of bed bugs under experimental (Exp) filter paper disk [1, 12]: 5
Number of bed bugs under experimental (Exp) filter paper disk [1, 13]: 6.5
Number of bed bugs under experimental (Exp) filter paper disk [1, 14]: 7
Number of bed bugs under experimental (Exp) filter paper disk [1, 15]: 6.5
Number of bed bugs under experimental (Exp) filter paper disk [1, 16]: 5
Number of bed bugs under experimental (Exp) filter paper disk [1, 17]: 4.5
Number of bed bugs under experimental (Exp) filter paper disk [1, 18]: 5
Number of bed bugs under experimental (Exp) filter paper disk [1, 19]: 5
Number of bed bugs under experimental (Exp) filter paper disk [1, 20]: 2
Number of bed bugs under experimental (Exp) filter paper disk [1, 21]: 2
Number of bed bugs under experimental (Exp) filter paper disk [1, 22]: 2
Number of bed bugs under experimental (Exp) filter paper disk [1, 23]: 4
Attractiveness to bed bugs [1, 24]: much less attractive
Attractiveness to bed bugs ([1]; at concentrations below about 100 ppm): less attractive
Number of bed bugs under experimental (Exp) disk ([3]; 1 Hour): 7.5
Number of bed bugs under experimental (Exp) disk ([3]; 2 Hour): 7.5
Number of bed bugs under experimental (Exp) disk ([3]; 3 Hour): 9
Number of bed bugs under experimental (Exp) disk ([3]; 4 Hours): 8.5
Attraction of bed bugs to experimental filter disks ([3]; compared among H:O ratios): most bed bugs were attracted

CCCC(=O)O[Si](C)(C)C [Trimethylsilyl butyrate, trimethylsilyl butyrate]
% Bed bugs in Experimental Zone [2]: 9%
Attraction of bed bugs to gaseous mixture [2]: attracted

CCC/C=C/C(OCC)OCC [trans-2-hexen-1-al diethylacetal]
% Bed bugs in Experimental Zone [2]: 28.0%
Attraction of bed bugs to gaseous mixture [2]: attracted

O=CO [Formic acid, reference compound]
Number of bed bugs under experimental (Exp) filter paper disk [1, 25]: 0
Number of bed bugs under experimental (Exp) filter paper disk [1, 26]: 1
Number of bed bugs under experimental (Exp) filter paper disk [1, 27]: 1
Number of bed bugs under experimental (Exp) filter paper disk [1, 28]: 3

CCCC(=O)OC [methyl butyrate]
% Bed bugs in Experimental Zone [2]: 34.0%
Attraction of bed bugs to gaseous mixture [2]: attracted
